From US7335632B2, “Beta-secretase inhibitors and methods of use thereof” (CoMentis, Inc., priority 2001, dated 2008)

Key:
[1] = target: memapsin 2 (Homo sapiens, UniProt P56817); experiment: Inhibition of memapsin 2 beta-secretase activity toward fluorogenic substrate FS-2; type: biochemical; details: pH 4, 37° C., 20 minutes pre-incubation, substrate FS-2, tight-binding model; read-out: M2 Ki
Description: Potency of compounds were determined by measurement of their inhibition of memapsin 2 activity toward a fluorescent substrate. […] Briefly, assays were performed at pH 4, 37° C., by pre-incubation of memapsin 2 enzyme with compound for 20 minutes. Activity measure was initiated by addition of a fluorogenic substrate FS-2 (Bachem Americas, Torrance, Calif.). Fluorescent signal increase over time was measured as a rate of hydrolysis of the peptide substrate.

[2] = target: Cathepsin D (Homo sapiens, UniProt P07339); experiment: Inhibition of cathepsin D activity (substrate peptide […], MALDI-TOF); type: biochemical; details: pH 4.1, 37 degrees C., substrate NH3-[…]-CO2, MALDI-TOF; read-out: Cath D Ki
Cathepsin D, sequence (P07339 65-412, species assumed): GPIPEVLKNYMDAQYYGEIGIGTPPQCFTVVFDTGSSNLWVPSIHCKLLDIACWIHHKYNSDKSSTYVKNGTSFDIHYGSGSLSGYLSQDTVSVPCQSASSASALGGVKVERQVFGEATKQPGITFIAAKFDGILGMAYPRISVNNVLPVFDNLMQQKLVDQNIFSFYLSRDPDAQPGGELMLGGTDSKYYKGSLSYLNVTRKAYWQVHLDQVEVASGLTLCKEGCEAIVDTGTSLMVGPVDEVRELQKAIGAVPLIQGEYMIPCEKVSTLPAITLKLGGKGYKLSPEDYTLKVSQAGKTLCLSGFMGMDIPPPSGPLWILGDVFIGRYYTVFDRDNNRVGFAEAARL

[3] = target: T1, memapsin 1 (Homo sapiens, UniProt Q9Y5Z0); experiment: Inhibition of memapsin 1 beta-secretase activity (substrate peptide […], MALDI-TOF); type: biochemical; details: pH 4.1, 37 degrees C., substrate NH3-ELDLAVEFWHDR-CO2, MALDI-TOF; read-out: M1 Ki
T1 sequence (Q9Y5Z0 63-518): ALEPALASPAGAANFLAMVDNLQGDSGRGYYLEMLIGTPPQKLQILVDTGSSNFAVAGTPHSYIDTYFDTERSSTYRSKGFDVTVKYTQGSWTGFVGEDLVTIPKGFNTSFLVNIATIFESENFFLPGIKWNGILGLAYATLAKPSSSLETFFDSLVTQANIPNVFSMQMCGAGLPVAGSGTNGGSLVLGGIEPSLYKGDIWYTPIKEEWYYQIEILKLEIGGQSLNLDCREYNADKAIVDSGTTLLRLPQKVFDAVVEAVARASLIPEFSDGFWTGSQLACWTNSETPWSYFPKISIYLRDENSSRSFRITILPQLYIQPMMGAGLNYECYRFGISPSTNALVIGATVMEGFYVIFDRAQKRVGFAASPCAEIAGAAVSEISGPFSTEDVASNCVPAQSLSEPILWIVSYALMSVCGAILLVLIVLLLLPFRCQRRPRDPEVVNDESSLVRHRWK

[4] = test system: Aβ production; experiment: Cellular Aβ IC50 determination (Aβ40 sandwich ELISA); type: cell-based; details: Cricetulus griseus, Chinese hamster ovary cells over-expressing human APP695 with London and Swedish mutations, 24 h
Description: The potency of compounds against memapsin 2 activity was determined in a cellular assay of Aβ production. […] Chinese hamster ovary cells that over-express human APP695 with the London and Swedish mutations were seeded in multi-well plates at 10% confluency. Compounds were dissolved in DMSO to concentrations near 1 mM, and diluted into culture media to a final concentration near 4 μM (final 0.4% DMSO). Compounds were diluted serially and applied to cells in multi-well plates 48 h after seeding. Incubation was continued in 5% CO2 at 37 degrees C. for 24 h. Aliquots were removed and assayed for Aβ40 content using a sandwich ELISA (BioSource International). Amount of Aβ40 over the range of concentration of compounds, relative to control incubations, were fit to a 4-parameter IC50 model.

memapsin 2, sequence (P56817 46-501): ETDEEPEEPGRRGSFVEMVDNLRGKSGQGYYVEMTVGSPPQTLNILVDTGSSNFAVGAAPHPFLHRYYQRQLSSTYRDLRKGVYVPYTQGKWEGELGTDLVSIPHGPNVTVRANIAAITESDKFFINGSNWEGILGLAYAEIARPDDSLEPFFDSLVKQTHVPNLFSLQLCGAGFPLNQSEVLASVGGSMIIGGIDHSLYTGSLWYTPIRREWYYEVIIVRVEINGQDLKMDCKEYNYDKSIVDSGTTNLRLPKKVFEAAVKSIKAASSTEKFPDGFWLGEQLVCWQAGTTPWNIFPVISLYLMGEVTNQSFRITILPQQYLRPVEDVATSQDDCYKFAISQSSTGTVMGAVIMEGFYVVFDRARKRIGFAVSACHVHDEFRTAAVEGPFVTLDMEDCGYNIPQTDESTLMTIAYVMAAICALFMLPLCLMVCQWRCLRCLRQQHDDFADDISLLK

Row | SMILES | Ki [1] [µM] | Ki [2] [µM] | Ki [3] [µM] | IC50 [4] [µM]
1 | Cc1csc(COC(=O)N[C@@H](CS(=O)(=O)C2CCCC2)C(=O)N[C@H](CC(C)C)[C@@H](O)C[C@@H](C)C(=O)N[C@@H](C(=O)NCC(C)C)C(C)C)n1 [Structure 58] | < 0.1 | 0.1 to 1 | 0.1 to 1 | < 6
2 | Cc1cc(C)n(CCC(=O)N[C@@H](CS(C)(=O)=O)C(=O)N[C@@H](CC(C)C)[C@@H](O)C[C@@H](C)C(=O)N[C@@H](C(=O)NCC(C)C)C(C)C)n1 [Structure 5] | < 0.1 | 0.1 to 1 | 0.1 to 1 | > 100
3 | CCc1nc(COC(=O)N[C@@H](CS(C)(=O)=O)C(=O)N[C@H](CC(C)C)[C@@H](O)C[C@@H](C)C(=O)N[C@@H](C(=O)NCC(C)C)C(C)C)c(C)s1 [Structure 71] | < 0.1 | 0.1 to 1 | 0.1 to 1 | > 100
4 | Cc1nc(COC(=O)N[C@@H](CS(C)(=O)=O)C(=O)N[C@H](Cc2cc(F)cc(F)c2)[C@@H](O)C[C@@H](C)C(=O)N[C@@H](C(=O)NCC(C)C)C(C)C)c(C)o1 [Structure 78] | 0.1 to 1 | < 0.1 | < 0.1 | 6 to 100
5 | CC[C@@H](Cn1nc(C)cc1C)C(=O)N[C@@H](C[S+](C)[O-])C(=O)N[C@@H](CC(C)C)[C@@H](O)C[C@@H](C)C(=O)N[C@@H](C(=O)NCC(C)C)C(C)C (some centres unmarked) [Structure 8] | < 0.1 | 0.1 to 1 | < 0.1 | < 6
6 | Cc1nc(COC(=O)N[C@@H](CS(C)(=O)=O)C(=O)N[C@H](CC(C)C)[C@@H](O)C[C@@H](C)C(=O)N[C@@H](C(=O)O)C(C)C)c(C)o1 [Structure 86] | 0.1 to 1 | > 1 | 0.1 to 1 | > 100
7 | Cc1cc(C)n(COC(=O)N[C@@H](C[S+](C)[O-])C(=O)N[C@@H](CC(C)C)[C@@H](O)C[C@@H](C)C(=O)N[C@H](C(=O)NCC(C)C)C(C)C)n1 (some centres unmarked) [Structure 9] | < 0.1 | 0.1 to 1 | < 0.1 | < 6
8 | CC[C@@H](Cn1nc(C)cc1C)C(=O)N[C@@H](CSC)C(=O)N[C@H](CC(C)C)[C@@H](O)C[C@@H](C)C(=O)N[C@@H](C(=O)NCC(C)C)C(C)C [Structure 3] | < 0.1 | < 0.1 | 0.1 to 1 | < 6
9 | CSC[C@H](NC(=O)OCc1ccn(C)n1)C(=O)N[C@H](CC(C)C)[C@@H](O)C[C@@H](C)C(=O)N[C@@H](C(=O)NCC(C)C)C(C)C [Structure 93] | 0.1 to 1 | < 0.1 | 0.1 to 1 | 6 to 100
10 | Cc1nc(COC(=O)N[C@@H](CS(C)(=O)=O)C(=O)N[C@H](CC(C)C)[C@@H](O)C[C@@H](C)C(=O)N[C@@H](C(=O)NCC(C)C)C(C)C)c(C)o1 [Structure 94] | < 0.1 | 0.1 to 1 | 0.1 to 1 | < 6
11 | CCc1nc(COC(=O)N[C@@H](CS(C)(=O)=O)C(=O)N[C@H](CC(C)C)[C@@H](O)C[C@@H](C)C(=O)N[C@@H](C(=O)NCC(C)C)C(C)C)c(C)o1 [Structure 74] | < 0.1 | 0.1 to 1 | 0.1 to 1 | < 6
12 | Cc1nc(COC(=O)N[C@@H](CSC(C)C)C(=O)N[C@H](CC(C)C)[C@@H](O)C[C@@H](C)C(=O)N[C@@H](C(=O)NCC(C)C)C(C)C)c(C)o1 [Structure 60] | < 0.1 | < 0.1 | 0.1 to 1 | < 6
13 | CC[C@@H](Cc1nc(C)cs1)C(=O)N[C@@H](CS(C)(=O)=O)C(=O)N[C@H](CC(C)C)[C@@H](O)C[C@@H](C)C(=O)N[C@@H](C(=O)NCC(C)C)C(C)C [Structure 77] | < 0.1 | < 0.1 | 0.1 to 1 | < 6
14 | Cc1nc(COC(=O)N[C@@H](CS(C)(=O)=O)C(=O)N[C@H](CC(C)C)[C@@H](O)C[C@@H](C)C(=O)N[C@@H](C(=O)NCc2ccccn2)C(C)C)c(C)o1 [Structure 91] | < 0.1 |  |  | > 100
15 | CC[C@H](C[C@H](O)[C@@H](CC(C)C)NC(=O)[C@H](CS(C)(=O)=O)NC(=O)OCc1nc(C)oc1C)C(=O)N[C@@H](C(=O)NCC(C)C)C(C)C [Structure 92] |  |  |  | < 6
16 | Cc1nc(COC(=O)N[C@@H](CS(C)(=O)=O)C(=O)N[C@H](Cc2ccccc2)[C@@H](O)C[C@@H](C)C(=O)N[C@@H](C(=O)NCC(C)C)C(C)C)c(C)o1 [Structure 51] | < 0.1 | < 0.1 | < 0.1 | 
17 | CSC[C@H](NC(=O)OCc1nc(C)oc1C)C(=O)N[C@H](CC(C)C)[C@@H](O)C[C@@H](C)C(=O)N[C@@H](C(=O)OCc1ccccc1)C(C)C [Structure 84] | > 1 | 0.1 to 1 | > 1 | 

Next, values leading:

Row | Ki [1] [µM] | Ki [2] [µM] | Ki [3] [µM] | IC50 [4] [µM] | SMILES
18 | < 0.1 | < 0.1 | 0.1 to 1 | < 6 | Cc1csc(COC(=O)N[C@@H](CSCC(C)C)C(=O)N[C@H](CC(C)C)[C@@H](O)C[C@@H](C)C(=O)N[C@@H](C(=O)NCC(C)C)C(C)C)n1 [Structure 47]
19 | < 0.1 | < 0.1 | 0.1 to 1 | < 6 | CSC[C@H](NC(=O)C(C)Cc1nc(C)cs1)C(=O)N[C@H](CC(C)C)[C@@H](O)C[C@@H](C)C(=O)N[C@@H](C(=O)NCC(C)C)C(C)C (some centres unmarked) [Structure 34]
20 | < 0.1 | 0.1 to 1 | 0.1 to 1 | < 6 | COCCOCS(=O)(=O)C[C@H](NC(=O)OCc1nc(C)cs1)C(=O)N[C@H](CC(C)C)[C@@H](O)C[C@@H](C)C(=O)N[C@@H](C(=O)NCC(C)C)C(C)C [Structure 30]
21 | < 0.1 | < 0.1 | < 0.1 | > 100 | CCSC[C@H](NC(=O)OCc1nc(C)cs1)C(=O)N[C@H](CC(C)C)[C@@H](O)C[C@@H](C)C(=O)N[C@@H](C(=O)NCC(C)C)C(C)C [Structure 19]
22 | < 0.1 | 0.1 to 1 | < 0.1 | > 100 | Cc1csc(COC(=O)N[C@@H](CS(=O)(=O)CC(C)C)C(=O)N[C@H](CC(C)C)[C@@H](O)C[C@@H](C)C(=O)N[C@@H](C(=O)NCC(C)C)C(C)C)n1 [Structure 49]
23 | < 0.1 | < 0.1 | 0.1 to 1 | 6 to 100 | CSC[C@H](NC(=O)OCc1nc(C)cs1)C(=O)N[C@H](CC(C)C)[C@@H](O)C[C@@H](C)C(=O)N[C@H](CC(C)C)C(=O)NC(C)C [Structure 43]
24 | < 0.1 | 0.1 to 1 | 0.1 to 1 | 6 to 100 | CCC(CC)S(=O)(=O)C[C@H](NC(=O)OCc1nc(C)cs1)C(=O)N[C@H](CC(C)C)[C@@H](O)C[C@@H](C)C(=O)N[C@@H](C(=O)NCC(C)C)C(C)C [Structure 73]
25 | < 0.1 | 0.1 to 1 | 0.1 to 1 | 6 to 100 | Cc1csc(COC(=O)N[C@@H](CS(C)(=O)=O)C(=O)N[C@H](CC(C)C)[C@@H](O)C[C@@H](C)C(=O)N[C@@H](C(=O)NCC(C)C)C(C)C)n1 [Structure 16]
26 | < 0.1 | 0.1 to 1 | 0.1 to 1 | < 6 | Cc1csc(COC(=O)N[C@@H](CS(C)(=O)=O)C(=O)N[C@H](CC(C)C)[C@@H](O)C[C@@H](C)C(=O)N[C@H](CC(C)C)C(=O)NC(C)C)n1 [Structure 46]
27 | < 0.1 | 0.1 to 1 | 0.1 to 1 | 6 to 100 | Cc1csc(COC(=O)N[C@@H](CS(C)(=O)=O)C(=O)N[C@H](CC(C)C)[C@@H](O)C[C@@H](C)C(=O)N[C@@H](C(=O)NCC(C)C)c2ccccc2)n1 [Structure 68]
28 | < 0.1 | < 0.1 | 0.1 to 1 | < 6 | CSC[C@H](NC(=O)OCc1nc(C)oc1C)C(=O)N[C@H](CC(C)C)[C@@H](O)C[C@@H](C)C(=O)N[C@@H](C(=O)NCC(C)C)C(C)C [Structure 29]
29 | > 1 |  |  | < 6 | CSC[C@H](NC(=O)OCc1nc(C)cs1)C(=O)N[C@H](CC(C)C)[C@@H](O)C[C@@H](C)C(=O)N[C@@H](C(N)=O)C(C)C [Structure 90]
30 | > 1 | 0.1 to 1 | > 1 |  | CSC[C@H](NC(=O)OCc1nc(C)cs1)C(=O)N[C@H](CC(C)C)[C@@H](O)C[C@@H](C)C(=O)N[C@@H](c1ncc[nH]1)C(C)C [Structure 80]
